The values below are quoted from earlier work in patent publication EP4748406A1, “MEDICAL ADHESIVE AGENT AND MEDICAL ADHESIVE SHEET” (Nitto Denko Corporation, priority 2023, dated 2025).

With `C=C(C)C(=O)O` [MAA, methacrylic acid], the “water solubility at 20°C” value is given as 9.7 g/100 mL.
